Columns and labels:
[1] = GC head space analysis of 1-MCP release from boron complexes mixed with water; assay type: physicochemical; settings: for amount of 1-MCP released in first 24 hours (releasing curves): FIGS. 4 & 7; for release of 1-MCP with time (MCP releasing curve): complex mixed vigorously with H2O in air-tight vial, head space vapor injected in GC; for consistency in releasing 1-MCP over time: FIGS. 4-7, compared with complex 2
Experimental: Investigation of releasing 1-MCP from the boron complexes of MCP (1, 2, 3,4): Without being bound by theory, due to the moisture sensitivity of the boron complexes, the nucleophilic attack of hydroxide ion (OH—) toward the boron atom triggered the breaking of the B-C bond releasing 1-MCP as a gas.
(§1) GC analysis of dicyclohexyl-(2-methylene-cyclopropyl)-borane (1): 140 mg of the complex was mixed vigorously with 0.6 mL of H2O in a 1.5 mL air-tight vial. The vapor collected (8 μl) from the head space of the solution was injected in a GC with an MXTR-1 column. The data were compared with a reference standard of 1-MCP.
as §1, with “dihexyl-(2-methylene-cyclopropyl)-borane (2): 291” for “dicyclohexyl-(2-methylene-cyclopropyl)-borane (1): 140”, “1.0” for “0.6”, “3” for “1.5”, “(100 μL)” for “(8 μl)”
as §1, with “tris-(2-methylene-cyclopropyl)-borane (3): 94” for “dicyclohexyl-(2-methylene-cyclopropyl)-borane (1): 140”, “0.4” for “0.6”, “μL)” for “μl)”
GC analysis of diphenyl-(2-methylene-cyclopropyl)-borane (4): 393 mg of the complex was mixed vigorously with 2.0 mL of H2O in a 3 mL air-tight vial. The vapor collected from the head space of the solution was injected in a Hewlett-Packard 5890 GC with capillary column (30 m×0.25 mm i.d.) coated with a 0.25 μm film of 5% phenyl methyl silicon and a flame ionization detector. The temperature of GC was programmed at 30° C. isothermal with an injection point temperature of 50° C. The detector was operated at 230° C. and sample was injected under split less condition. Helium was used as carrier gas with a 1.5 mL/min column flow.
However, during this analysis it was observed that some other compounds were also released. Those compounds formed due to the breakage of other B-C bonds were cyclohexane and cyclohexanol from complex 1 or hexane and hexanol from complex 2. Complex 3 also released some byproducts either by incomplete hydrolysis of the complex or Markovnikov addition of H2O.

[2] = 1-MCP concentration inside the jars by GC analysis after 24 hour treatment; assay type: physicochemical; settings: 1-gal airtight jars, equivalent amount of complex, 2 mL water
Experimental: (§2) Boron complex 1 was tested on green tomatoes. Six 3.9 L air tight glass jars were taken for investigation containing five green tomatoes each. The tomatoes in three jars were treated with 1-MCP released from the reaction between Boron complex 1 and water in a 14 mL vial with continuous stirring, which was placed inside the jars. The other jars were kept in identical condition without placing any boron complex inside. The treatment was carried out for 24 hours. The concentration level of 1-MCP was determined (9 to 13 μLL^-1) after 24 hours of reaction by GC analysis using 2-methyl-1-propene as a standard. After 24 hours treatment all the tomatoes were kept in open environment and monitored for their color changes.
(§3) For the comparative studies between DCMB (1) and DPMB (4), experiment was performed with three 1-gal airtight jars containing eight tomatoes each which were collected from the same source but different time. One jar was used as blank containing no complex and the other two jars Were treated with equivalent amount of DCMB (1) (393 mg) and DPMB (4) (376.5 mg) complex respectively arid water (2 mL), The concentration of released 1-MCP inside the jars was calculated by GC analysis after 24 hour treatment The treated and untreated tomatoes were subjected to quality analysis under identical conditions.

tomatoes = assay: Comparative quality analysis of tomatoes treated with DCMB (1) and DPMB (4); assay type: in vivo; settings: for darkness (L*) of tomatoes during storage / redness (a*/b*) of tomatoes during storage: 7 days storage at 22±2° C.; for darkness (L*) of tomatoes during storage: FIG. 14; for redness (a*/b*) of tomatoes during storage: FIG. 15; for average firmness of tomatoes: day 7, storage at 22±2° C., FIG. 16
Experimental: as §3
Quality Analysis: Noninoculated tomatoes were treated with Boron complex 1 as described before and kept in open air for 9 days. Quality analysis (color and firmness) was performed at 22±2° C. Color was measured with a Hunter UltraScan® VIS colorimeter (Hunter Associates Lab, Reston, Va.) and firmness was evaluated with a TA-XT2i Texture Analyzer (Texture Technologies Corp., Scarsdale, N.Y.). Four measurements were taken for each tomato for color and firmness. The color of the tomatoes was measured seven times during the investigation period and firmness was determined at the end of 9th day.
Similar results were found in a*/b* value (FIG. 15). […] The firmness data of the treated tomatoes was compared to that of non-treated tomatoes at Day 7 (NT-7D, Exp 2) and also at Day 0 (NT-OD, Exp 2), which were collected from the same batch. […] However, a significant difference was observed between the non-treated tomatoes at day 7 (2.68 kg) and non-treated fruits at day 0.

green tomatoes = assay: Green tomatoes treated with 1-MCP released from Boron complex 1 and water; color and firmness quality analysis; assay type: in vivo
Experimental: as §2, with “changes. Quality Analysis: Noninoculated tomatoes were treated with Boron complex 1 as described before and kept in open air for 9 days. Quality analysis (color and firmness) was performed at 22±2° C. Color was measured with a Hunter UltraScan® VIS colorimeter (Hunter Associates Lab, Reston, Va.) and firmness was evaluated with a TA-XT2i Texture Analyzer (Texture Technologies Corp., Scarsdale, N.Y.). Four measurements were taken for each tomato for color and firmness. The color of the tomatoes was measured seven times during the investigation period and firmness was determined at the end of 9th day.” for “changes.”

release of 1-MCP with time (MCP releasing curve) [1] | concentration of 1-MCP [2] [μLL-1] | area ratio of released 1-MCP over cyclohexane vs. temperature ([1]; GC experiment at different temperatures, FIG. 8) | Structure (SMILES) | amount of 1-MCP released in first 24 hours (releasing curves) [1] | darkness (L*) of tomatoes during storage (tomatoes) | redness (a*/b*) of tomatoes during storage (tomatoes) | average firmness of tomatoes (tomatoes) [kg] | consistency in releasing 1-MCP over time [1] | tomato color at the end of nine days (green tomatoes; 24 hours treatment, then open environment, all untreated turned red) | tomato color after 4 days (green tomatoes; 24 hours treatment, then open environment, untreated turned yellow) | darkness (L*) of tomatoes during storage (green tomatoes; 9 days storage at 22±2° C., FIG. 10) | redness (a*/b*) of tomatoes during storage (green tomatoes; 9 days storage at 22±2° C., FIG. 11) | firmness of tomatoes (green tomatoes; end of 9th day, storage at 22±2° C., FIG. 12) | foreign spots on the surface of the treated tomatoes (green tomatoes; in vivo)
released gradually with time | 1 |  | C=C1CC1B(c1ccccc1)c1ccccc1 (centres unmarked) [complex 4, diphenyl-(2-methylene-cyclopropyl)-borane] | relatively low in first 24 hours | remained in the middle | slower increase than the non-treated tomatoes | 3.10 |  |  |  |  |  |  | 
released gradually with time | 5 | increased at lower temperature | C=C1CC1B(C1CCCCC1)C1CCCCC1 (centres unmarked) [complex 1, dicyclohexyl-(2-methylene-cyclopropyl)-borane] | near to its highest point in first 24 hours | did not significantly change | did not change significantly or increased very slowly | 4.20 | more consistent in releasing 1-MCP over time | half of the treated tomatoes were still green | remained green | did not significantly change | increased slowly but not in significant value | 1.42 (±0.35) kg | No foreign spots were observed
released gradually with time |  |  | C=C1CC1B(C1CC1=C)C1CC1=C (centres unmarked) [complex 3, tris-(2-methylene-cyclopropyl)-borane] |  |  |  |  | more consistent in releasing 1-MCP over time |  |  |  |  |  | 
released gradually with time |  |  | C=C1CC1B(CCCCCC)CCCCCC (centres unmarked) [complex 2, dihexyl-(2-methylene-cyclopropyl)-borane] |  |  |  |  |  |  |  |  |  |  | 

Source: patent publication US9622479B2, “Boron complexes with gradual 1-methylcyclopropene releasing capability” (The United States of America, as represented by the …, priority 2014, dated 2017)
